One assay concerns the target T1, NfnB-cys (Escherichia coli, UniProt P38489).
T1 construct: gene nfsB; pET28a+ His-tag plus tag of 6 N-terminal cysteines, tags kept; E. coli Rosetta pLysS; FMN-loaded; approx. 28 kDa monomer on SDS-PAGE; free enzyme
Kind of assay: prodrug consumption at […] nm, microplate, Michaelis-Menten fit. The settings on record: read-out: Km μM, NADH 4 mM, 50 mM phosphate pH 7.2, 37 °C, 5% v/v DMSO, prodrug 0.1-20 mM. It counts as biochemical.

For the next assay, the system named is T2, YfkO-cys.
T2 construct: pET28a+ His-tag plus tag of 6 N-terminal cysteines, tags kept; E. coli Rosetta pLysS; FMN-loaded; approx. 30 kDa monomer on SDS-PAGE; free enzyme
The assay is described as above. In kind it is biochemical, Bacillus licheniformis. The settings on record: NADH 4 mM, 50 mM phosphate pH 7.2, 37 °C, 5% v/v DMSO, prodrug 0.1-20 mM.

Read-outs that look alike come from different tables or passages of the source.

T1 sequence (P38489 whole entry): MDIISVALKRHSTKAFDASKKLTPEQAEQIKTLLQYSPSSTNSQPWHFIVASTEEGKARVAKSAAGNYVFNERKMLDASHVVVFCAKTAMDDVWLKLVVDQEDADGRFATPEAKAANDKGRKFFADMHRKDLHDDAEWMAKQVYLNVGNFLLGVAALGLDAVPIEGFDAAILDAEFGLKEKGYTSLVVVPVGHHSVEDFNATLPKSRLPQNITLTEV

Broadly, the Km is the concentration of substrate that gives half-maximal velocity. As to `CS(=O)(=O)OCCN(CCBr)c1c(C(=O)NCCO)cc([N+](=O)[O-])cc1[N+](=O)[O-]` [PR-104A, 2-[N-(2-bromoethyl)-2-(2-hydroxyethylcarbamoyl)-4,6-dinitroanilino]ethylmethanesulfonate], the Km at NfnB-cys (text b40 prints 3172 μM) turned out to be 3100 ± 400 µM; in the assay on YfkO-cys (text b40 prints 1935 μM) it was 1900 ± 350 µM.
As for `O=C(NCCO)c1cc([N+](=O)[O-])cc([N+](=O)[O-])c1N(CCBr)CCBr` [SN27686], the Km is 250 ± 80 µM on NfnB-cys (text b40 prints 257 μM) and 420 ± 120 µM in the assay on YfkO-cys.
